The target of data set [1] is active human recombinant Src (Homo sapiens, UniProt P12931). Kind of data set: Z'-LYTE kinase assay (FRET), primary screen. The class given is biochemical. Conditions: isolated enzyme, mean ± SD of two independent experiments.
Procedure: (§3) Enzymatic assays to determine the kinase inhibitory activity of NCEs were performed using an automatic liquid-handling device (Microlab STAR Hamilton) and Z’-LYTE Kinase Assay Platform, a fluorescence resonance energy transfer (FRET)-based assay platform compatible with high-throughput screening (HTS) applications. […] The assay procedure was carried out according to the supplier’s indications. […] Final results have been expressed as percent inhibition, and IC50 values were calculated by non-linear curve fitting using GraphPad Prism software (version 6 for Windows). The inter-experimental variability of IC50 values resulted within accepted limits of ±0.5 log units.
The target in another data set is T1, Fyn (Homo sapiens, UniProt P06241).
T1 construct: (Fyn, LynA, and Yes1, all human recombinant full-length proteins)
Kind of data set: Z'-LYTE kinase assay (FRET), SFK profiling. The conditions noted are these: isolated enzyme, mean ± SD of two independent experiments. In kind it is biochemical.

Another data set addresses T2, LynA (Homo sapiens, UniProt P07948).
T2 construct: (Fyn, LynA, and Yes1, all human recombinant full-length proteins)
Kind of data set: Z'-LYTE kinase assay (FRET), SFK profiling. The conditions noted are these: isolated enzyme, mean ± SD of two independent experiments; read-out: Lyn IC50. In kind it is biochemical.

The target in a further data set is T3, Yes1 (Homo sapiens, UniProt P07947).
T3 construct: (Fyn, LynA, and Yes1, all human recombinant full-length proteins)
T3 sequence (P07947 whole entry): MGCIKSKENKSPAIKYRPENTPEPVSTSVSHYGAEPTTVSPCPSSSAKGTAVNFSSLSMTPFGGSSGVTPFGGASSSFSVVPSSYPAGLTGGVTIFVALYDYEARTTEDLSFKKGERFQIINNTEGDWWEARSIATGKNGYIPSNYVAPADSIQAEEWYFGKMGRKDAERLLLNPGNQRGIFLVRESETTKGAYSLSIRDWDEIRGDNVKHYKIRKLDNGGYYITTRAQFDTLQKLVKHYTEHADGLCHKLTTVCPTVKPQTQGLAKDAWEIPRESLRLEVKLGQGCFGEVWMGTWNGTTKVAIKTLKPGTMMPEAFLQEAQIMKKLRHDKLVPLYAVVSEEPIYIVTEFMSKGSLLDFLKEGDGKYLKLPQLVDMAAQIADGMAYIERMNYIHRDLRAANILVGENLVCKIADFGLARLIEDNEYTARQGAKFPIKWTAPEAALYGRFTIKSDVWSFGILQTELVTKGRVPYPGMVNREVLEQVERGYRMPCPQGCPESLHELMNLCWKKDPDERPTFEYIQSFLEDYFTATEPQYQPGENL
The data set is described as follows: Z'-LYTE kinase assay (FRET), SFK profiling. The class given is biochemical. Conditions: isolated enzyme, mean ± SD of two independent experiments; read-out: Yes IC50.

Data set [2] deals with SH-SY5Y neuroblastoma cell line. The data set is described as follows: Antiproliferative assay, viable cell count after 72 h. In kind it is cell-based, human. The conditions noted are these: for increased activity compared to the hit compound 2 on SH-SY5Y cells: 72 h, ratio of IC50 values; for IC50: Homo sapiens, 72 h incubation, read-out: IC50 antiproliferative activity on SH-SY5Y cells. As for the experimental part: (§1) Starting from these promising results in enzymatic assays, we decided to test NCEs 4 on K562 CML and SH-SY5Y NB cell lines, to evaluate if they are endowed with an increased antiproliferative activity compared with the hit compound 2. A hyperactivation of SFKs has been detected in both K562 and SH-SY5Y cell lines. Cells were treated with increasing concentrations of compounds and cell proliferation was measured by counting viable cells after 72 h of incubation. […] The activity of these compounds could be due not only to Src inhibition, but also to their effect on Fyn and Lyn, both involved in NB development.
(§2) In vitro experiments were carried out using human neuroblastoma cell line SH-SY5Y, human glioblastoma cell line U-87, and human erythroleukemia cell line K-562. Cell lines were obtained from American Tissue Culture Collection (ATCC, SH-SY5Y CRL-2266; U-87 HTB-14; K-562 CCL-243). K-562 cells were cultured in RPMI medium with 10% FCS. SH-SY5Y and U-87 cells were cultured in DMEM medium with 10% FCS. In order to determine antiproliferative effect of NCE compounds cells were seeded at density of 5 × 10^4 cells/mL (K-562) or 10 × 10^4 cells/cm^2 (SH-SY5Y, U-87) and treated with increasing concentrations of NCE compounds. Control cells were treated with the vehicle of the experimental point containing the highest percentage of DMSO. Cell cultures were maintained at 37 °C in 5% v/v CO2 for 72 h. Cell number and vitality were evaluated on cell suspension using the automatic cell counter NucleoCounter® (Chemometec, Denmark). Results from the NucleoCounter represented either total or non-viable cell concentration, depending on the sample preparation indicated by the manufacturer. Each experiment was performed at least three times and results were expressed as mean and standard deviation.

Data set [3] relates to K562 CML cell line. The data set is described as above. The conditions noted are these: Homo sapiens; K562, 72 h incubation; read-out: IC50 antiproliferative activity on K562 cells. The class given is cell-based. How it is done: as §1
In vitro experiments were carried out using human neuroblastoma cell line SH-SY5Y, human glioblastoma cell line U-87, and human erythroleukemia cell line K-562. Cell lines were obtained from American Tissue Culture Collection (ATCC, SH-SY5Y CRL-2266; U-87 HTB-14; K-562 CCL-243). K-562 cells were cultured in RPMI medium with 10% FCS. SH-SY5Y and U-87 cells were cultured in DMEM medium with 10% FCS. […] Cell number and vitality were evaluated on cell suspension using the automatic cell counter NucleoCounter® (Chemometec, Denmark). […] Each experiment was performed at least three times and results were expressed as mean and standard deviation.

Data set [4] deals with U87 glioblastoma multiforme cells. The data set is described as above. In kind it is cell-based. Conditions: Homo sapiens; U87, 72 h incubation. How it is done:
A possible explanation could be the multidrug resistance mechanisms that GBM cells usually carry: an example is the overexpression of membrane channels (ABCB1) that are able to pump different kind of drugs out of the cells. In Supplementary Materials, Figure S1, the activity of other NCEs on U87 GBM cell line are reported.
as §2, with “Results from the NucleoCounter represented either total or non-viable cell concentration, depending on the sample preparation indicated by the manufacturer.” left out

Another data set deals with Jak2. Set-up: method as in PMID 24359159. Conditions: cited from earlier work.
Data set [5] relates to SH-SY5Y neuroblastoma cell line. Set-up: method as in PMID 26514807. Conditions: previous work; cited from earlier work.
The test system of data set [6] is K562 CML cell line. Set-up: method as in PMID 26514807. The conditions noted are these: previous work; cited from earlier work.

The structures appear in SMILES notation. Like-named read-outs stand apart in the source and are kept apart here.

T1 sequence (P06241 whole entry): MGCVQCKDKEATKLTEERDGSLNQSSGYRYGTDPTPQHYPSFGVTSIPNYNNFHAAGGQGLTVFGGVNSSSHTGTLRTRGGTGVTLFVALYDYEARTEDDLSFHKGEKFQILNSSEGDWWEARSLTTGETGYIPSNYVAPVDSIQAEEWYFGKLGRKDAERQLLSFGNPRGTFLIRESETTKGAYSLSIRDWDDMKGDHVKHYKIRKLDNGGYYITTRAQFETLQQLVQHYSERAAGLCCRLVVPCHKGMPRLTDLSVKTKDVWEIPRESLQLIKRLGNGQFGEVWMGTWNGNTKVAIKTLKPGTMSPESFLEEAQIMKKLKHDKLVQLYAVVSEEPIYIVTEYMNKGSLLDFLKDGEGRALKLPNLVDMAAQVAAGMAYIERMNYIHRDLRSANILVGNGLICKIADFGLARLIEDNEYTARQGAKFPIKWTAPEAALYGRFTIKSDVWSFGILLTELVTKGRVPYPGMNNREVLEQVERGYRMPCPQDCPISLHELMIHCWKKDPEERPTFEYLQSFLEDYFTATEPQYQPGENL
T2 sequence (P07948 whole entry): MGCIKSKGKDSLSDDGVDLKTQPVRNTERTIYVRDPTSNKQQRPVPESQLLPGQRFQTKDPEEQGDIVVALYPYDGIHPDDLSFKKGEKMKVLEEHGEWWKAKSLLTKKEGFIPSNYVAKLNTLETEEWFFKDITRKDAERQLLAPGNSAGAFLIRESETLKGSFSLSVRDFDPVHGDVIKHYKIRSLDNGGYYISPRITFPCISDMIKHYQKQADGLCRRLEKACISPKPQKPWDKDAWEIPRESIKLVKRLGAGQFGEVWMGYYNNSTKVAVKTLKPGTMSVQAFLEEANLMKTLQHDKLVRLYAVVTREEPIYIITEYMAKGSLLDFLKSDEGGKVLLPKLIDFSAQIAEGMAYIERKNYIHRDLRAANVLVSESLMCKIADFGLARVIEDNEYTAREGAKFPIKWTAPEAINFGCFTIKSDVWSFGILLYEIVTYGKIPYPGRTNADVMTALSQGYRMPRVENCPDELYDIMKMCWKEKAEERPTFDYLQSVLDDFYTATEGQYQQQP
Chain of active human recombinant Src (P12931 whole entry): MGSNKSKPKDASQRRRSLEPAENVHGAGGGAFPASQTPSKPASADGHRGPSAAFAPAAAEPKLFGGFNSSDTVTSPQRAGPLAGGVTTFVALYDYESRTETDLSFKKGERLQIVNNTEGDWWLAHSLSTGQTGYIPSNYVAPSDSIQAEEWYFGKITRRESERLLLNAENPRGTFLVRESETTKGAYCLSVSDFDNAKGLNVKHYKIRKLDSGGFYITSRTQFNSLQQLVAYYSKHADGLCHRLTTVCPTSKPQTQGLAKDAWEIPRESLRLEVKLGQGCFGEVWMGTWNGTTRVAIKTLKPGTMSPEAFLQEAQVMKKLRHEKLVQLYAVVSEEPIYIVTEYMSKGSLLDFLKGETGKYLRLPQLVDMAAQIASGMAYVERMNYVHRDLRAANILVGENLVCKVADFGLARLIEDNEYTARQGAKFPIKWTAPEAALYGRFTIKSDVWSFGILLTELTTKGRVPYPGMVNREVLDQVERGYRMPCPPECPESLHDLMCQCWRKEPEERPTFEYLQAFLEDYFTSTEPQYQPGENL
Procedure for Fyn: as §3
Procedure for LynA: as §3
Procedure for Yes1: as §3

The IC50 is the concentration at which inhibition is half-maximal. For the molecule `COc1cccc(CCn2cnc(Nc3cc(N4CCN(CCO)CC4)nc(C)n3)c2)c1` [4a, 2-{4-[6-({1-[2-(3-Methoxyphenyl)ethyl]-1H-imidazol-4-yl}amino)-2-methylpyrimidin-4-yl]piperazin-1-yl}ethanol], the IC50 in data set [1] turned out to be 0.26 ± 0.023 µM; against Fyn it was 0.146 ± 0.03 µM; on LynA, 0.451 ± 0.013 µM; at Yes1 it was 0.56 ± 0.04 µM.

In general, melting point refers to the temperature, or range, at which the solid turns liquid. As for `COc1cccc(CCn2cnc(Nc3cc(N4CCN(CC(N)=O)CC4)nc(C)n3)c2)c1` [4b, 2-{4-[6-({1-[2-(3-Methoxyphenyl)ethyl]-1H-imidazol-4-yl}amino)-2-methylpyrimidin-4-yl]piperazin-1-yl}acetamide], the melting point was 198 to 200 °C. Moreover, in data set [1], the IC50 is 1.48 ± 0.185 µM. Further, at Fyn, the midpoint of inhibition, the IC50, lay at 1.45 ± 0.768 µM. For the same molecule, the IC50 on LynA amounted to 1.81 ± 0.307 µM. The IC50 at Yes1 is 1.84 ± 0.812 µM.

`COc1ccccc1CCn1cnc(Nc2cc(N3CCN(CCO)CC3)nc(C)n2)c1` [4c, 2-{4-[6-({1-[2-(2-Methoxyphenyl)ethyl]-1H-imidazol-4-yl}amino)-2-methylpyrimidin-4-yl]piperazin-1-yl}ethanol]: the half-inhibitory concentration (IC50) in data set [1] was 0.225 ± 0.008 µM; on Fyn, 0.439 ± 0.045 µM; at LynA, 0.145 ± 0.031 µM; at Yes1 it was 0.055 ± 0.009 µM.

Turning to `COc1ccccc1CCn1cnc(Nc2cc(N3CCN(CC(N)=O)CC3)nc(C)n2)c1` [4d, 2-{4-[6-({1-[2-(2-Methoxyphenyl)ethyl]-1H-imidazol-4-yl}amino)-2-methylpyrimidin-4-yl]piperazin-1-yl}acetamide], the IC50 amounted to 1.53 ± 0.044 µM in data set [1], 1.39 ± 0.093 µM at Fyn and 1.2 ± 0.189 µM on LynA.

In the case of `Cc1nc(Nc2cn(CCc3ccccc3O)cn2)cc(N2CCN(CCO)CC2)n1` [4e, 2-{2-[4-({6-[4-(2-Hydroxyethyl)piperazin-1-yl]-2-methylpyrimidin-4-yl}amino)-1H-imidazol-1-yl]ethyl}phenol], the half-maximal inhibitory concentration (IC50) in data set [1] was found to be 0.059 ± 0.005 µM; on Fyn it was 0.073 ± 0.005 µM; at LynA, 0.017 ± 0.00054 µM; at Yes1, 0.011 ± 0.0006 µM.

`Cc1nc(Nc2cn(CCc3ccccc3O)cn2)cc(N2CCNCC2)n1` [4f, 2-(2-{4-[(2-Methyl-6-piperazin-1-ylpyrimidin-4-yl)amino]-1H-imidazol-1-yl}ethyl)phenol] had a melting point of 193 to 196 °C. Besides, the IC50 in data set [1] turned out to be 0.056 ± 0.005 µM. This molecule came in with an IC50 on Fyn of 0.05 ± 0.004 µM. The half-maximal inhibitory concentration (IC50) on LynA is 0.051 ± 0.003 µM. Further, the IC50 on Yes1 came out at 0.003 ± 0.001 µM.

`Cc1nc(Nc2cn(CCc3ccccc3O)cn2)cc(N2CCN(CC(N)=O)CC2)n1` [4g, 2-{4-[6-({1-[2-(2-Hydroxyphenyl)ethyl]-1H-imidazol-4-yl}amino)-2-methylpyrimidin-4-yl]piperazin-1-yl}acetamide] displayed a melting point of 160 to 163 °C. Further, the IC50 in data set [1] turned out to be 0.04 ± 0.005 µM. The molecule further registered an IC50 on Fyn of 0.04 ± 0.005 µM. Moreover, the IC50 at LynA turned out to be 0.019 ± 0.002 µM. Also, the concentration for half-maximal inhibition (IC50) at Yes1 is 0.015 ± 0.004 µM.

The molecule `Cc1nc(Nc2cn(CCc3cccc(O)c3)cn2)cc(N2CCN(CCO)CC2)n1` [4h, 3-{2-[4-({6-[4-(2-Hydroxyethyl)piperazin-1-yl]-2-methylpyrimidin-4-yl}amino)-1H-imidazol-1-yl]ethyl}phenol] gave a melting point of 150 to 155 °C. Moreover, the IC50 in [1] came out at 0.093 ± 0.019 µM. On Fyn, inhibition was half-maximal at 0.01 ± 0.0004 µM (IC50). In addition, the half-inhibitory concentration (IC50) at LynA came to 0.02 ± 0.0008 µM. Further, at Yes1, the IC50 was determined as 0.003 ± 0.001 µM.

As for `Cc1nc(Nc2cn(CCc3cccc(O)c3)cn2)cc(N2CCNCC2)n1` [4i, 3-(2-{4-[(2-Methyl-6-piperazin-1-ylpyrimidin-4-yl)amino]-1H-imidazol-1-yl}ethyl)phenol], the melting point lay in the range of 193 to 196 °C. In addition, the half-inhibitory concentration (IC50) in data set [1] came out at 0.083 ± 0.018 µM. Besides, the IC50 against Fyn stood at 0.01 ± 0.0004 µM. The IC50 at LynA turned out to be 0.027 ± 0.001 µM. Moreover, the half-maximal inhibitory concentration (IC50) on Yes1 was determined as 0.003 ± 0.0008 µM.

`Cc1nc(Nc2cn(CCc3cccc(O)c3)cn2)cc(N2CCN(CC(N)=O)CC2)n1` [4j, 2-{4-[6-({1-[2-(3-Hydroxyphenyl)ethyl]-1H-imidazol-4-yl}amino)-2-methylpyrimidin-4-yl]piperazin-1-yl}acetamide]: the IC50 in data set [1] came to 0.04 ± 0.003 µM; against Fyn, 0.012 ± 0.002 µM; at LynA it was 0.01 ± 0.0012 µM; at Yes1 it was 0.003 ± 0.0007 µM.

In turn, `COC(=O)CN1CCN(c2cc(Nc3cn(CCc4cccc(O)c4)cn3)nc(C)n2)CC1` [4k, Methyl{4-[6-({1-[2-(3-hydroxyphenyl)ethyl]-1H-imidazol-4-yl}amino)-2-methylpyrimidin-4-yl]piperazin-1-yl}acetate] had a melting point of 127 to 130 °C. Also, the IC50 in [1] was determined as 0.04 ± 0.002 µM. The molecule also gave an IC50 at Fyn of 0.009 ± 0.001 µM. Also, the IC50 on LynA was 0.018 ± 0.001 µM. For the same molecule, on Yes1, the IC50 was determined as 0.003 ± 0.001 µM. In data set [2], the “increased activity compared to the hit compound 2 on SH-SY5Y cells” value is on record as “more than 2 fold” and the IC50 was found to be 8.6 µM. For the same molecule, in the data set with K562 CML cell line [3], the 50% inhibitory concentration (IC50) is 11.7 µM. The same molecule returned an IC50 in data set [4] of 12.6 µM.

Turning to `Cc1nc(Nc2cn(CCc3cccc(O)c3)cn2)cc(N2CCN(C(=O)OC(C)(C)C)CC2)n1` [4l, tert-Butyl4-[6-({1-[2-(3-hydroxyphenyl)ethyl]-1H-imidazol-4-yl}amino)-2-methylpyrimidin-4-yl]piperazine-1-carboxylate], the melting point was in the range of 127 to 130 °C. Further, in data set [1], the IC50 is 0.05 ± 0.003 µM. In addition, 0.014 ± 0.0015 µM corresponded to half-maximal inhibition against Fyn (IC50). On LynA, the half-maximal inhibitory concentration (IC50) amounted to 0.026 ± 0.003 µM. On Yes1, the 50% inhibitory concentration (IC50) was 0.007 ± 0.00035 µM. In [2], the “increased activity compared to the hit compound 2 on SH-SY5Y cells” value is “more than 2 fold” and the IC50 was found to be 7.8 µM. Further, the IC50 in the data set with K562 CML cell line [3] was 18.9 µM. Moreover, 13.3 µM corresponded to half-maximal inhibition in data set [4] (IC50).

As to `Cc1cc(Nc2nc(N[C@@H](C)c3ncc(F)cn3)ncc2Cl)n[nH]1` [AZD1480], in the data set on Jak2, the IC50 was 0.058 µM.

`Cc1nc(Nc2cn(CCc3ccccc3)cn2)cc(N2CCN(CCO)CC2)n1` [compound 2]: the 50% inhibitory concentration (IC50) in data set [5] was 25 µM; in the data set on K562 CML cell line [6], above 25 µM.

(Values after PMC6225123, “Optimization of Aminoimidazole Derivatives as Src Family Kinase Inhibitors” (Molecules : A Journal of Synthetic Chemistry and Natural …, 2018).)
